Results taken from the NIST ThermoML archive (doi:10.1021/je050156k).

Conditions: Liquid; for mass density: 101.33 kPa; for vapor or sublimation pressure: Closed cell (Static) method

C1CCC2OC2C1 (stereo unspecified) [7-oxabicyclo[4.1.0]heptane]
Conditions | mass density [kg/m3] | vapor or sublimation pressure [kPa]
277.7 K | 988.4 | –
289 K | 978 | –
293.2 K | 972.2 | –
303.2 K | 963.8 | –
313.2 K | 955 | –
323.2 K | 944.8 | –
333.2 K | 935.4 | –
343.2 K | 925.5 | –
353.2 K | 915.7 | –
360.91 K | – | 25.5
361.13 K | – | 25.8
363.2 K | 903.9 | –
382.47 K | – | 52.4
383.09 K | – | 53.6
404.87 K | – | 101.3
405.48 K | – | 103.8
423.87 K | – | 167
443.95 K | – | 268
453.99 K | – | 333
463.99 K | – | 409
474.03 K | – | 497
